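All cell lines were grown in 96-well plates and treated with compound for 48 hours. At the GI50, growth is halved. TGI marks complete inhibition of growth.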

Among the test systems are SK-OV-3 ovarian; A549 NSCLC; SK-MEL-28 melanoma; EKVX NSCLC; NCI-H226 lung; KM12 colon; NCI-H23 lung; UACC-62 melanoma; TK-10 renal; SR leukemia.
Common to all, as to assay: growth of human tumour cells (NCI), 48 h

As for `CC(=O)OC1C2(CC3N4C(=O)C5(CO)SSC4(CC31O)C(=O)N5C)OC(C)C(C)(C)C2=O` (configuration not stated), the GI50 was 0.0745 µM in the assay on SK-OV-3 ovarian; 0.0592 µM with A549 NSCLC; 0.0141 µM with SK-MEL-28 melanoma; 0.124 µM with EKVX NSCLC; 0.0142 µM with NCI-H226 lung; 1.16 µM in the assay with KM12 colon. Also, the figures for the GI50 in the assay on NCI-H23 lung, with UACC-62 melanoma and in the assay with TK-10 renal were under 0.0371 µM, 0.0103 µM and 1.73 µM, respectively. For the same compound, the TGI turned out to be 0.454 µM in the assay on SK-OV-3 ovarian; 0.231 µM with A549 NSCLC; 0.0696 µM in the assay on SK-MEL-28 melanoma; 0.709 µM in the assay with EKVX NSCLC; 0.0553 µM with NCI-H226 lung; 2.6 µM in the assay with KM12 colon. Besides, the values for the TGI with NCI-H23 lung, in the assay on UACC-62 melanoma and in the assay with TK-10 renal were 0.0932 µM, 0.0322 µM and 3.27 µM, respectively.
`CCOc1ccc(NC(=O)CC2SC(N)=NC2=O)cc1` (configuration not stated): the TGI with A549 NSCLC, in the assay with SK-MEL-28 melanoma, in the assay on EKVX NSCLC, in the assay on NCI-H226 lung, with KM12 colon and with NCI-H23 lung was over 100 µM in each case. The TGI in the assay on UACC-62 melanoma and in the assay on TK-10 renal was over 100 µM each time.
Regarding `COc1ccc(COCC(Cn2ccnc2)OCc2ccc(C(=O)O)cc2)cc1` (configuration not stated), the TGI in the assay with SK-OV-3 ovarian, in the assay on A549 NSCLC, in the assay with SK-MEL-28 melanoma, in the assay with EKVX NSCLC, in the assay on NCI-H226 lung and in the assay with KM12 colon was over 100 µM in each case. Further, the TGI in the assay with NCI-H23 lung, in the assay with UACC-62 melanoma and in the assay on TK-10 renal was over 100 µM in each case.
Turning to `CC(CCCOC(c1ccccc1)(c1ccccc1)c1ccccc1)OC(=O)Nc1cc([N+](=O)[O-])cc([N+](=O)[O-])c1` (configuration not stated), the TGI was 57.9 µM with SK-OV-3 ovarian; over 100 µM in the assay with SR leukemia; over 100 µM in the assay on A549 NSCLC; 54.4 µM in the assay on SK-MEL-28 melanoma; 97 µM in the assay on EKVX NSCLC; over 100 µM with KM12 colon. Moreover, the TGI came to 58.7 µM in the assay with NCI-H23 lung and 50.2 µM with UACC-62 melanoma.
Regarding `Clc1ccc2nc(Oc3ccccc3)cnc2c1`, the GI50 in the assay on SK-OV-3 ovarian, in the assay on A549 NSCLC, in the assay with SK-MEL-28 melanoma, in the assay on EKVX NSCLC, in the assay with NCI-H226 lung and in the assay on KM12 colon was over 100 µM each time. Also, the GI50 in the assay with NCI-H23 lung, with UACC-62 melanoma and in the assay with TK-10 renal was over 100 µM each time. Moreover, the TGI in the assay with SK-OV-3 ovarian, with A549 NSCLC, with SK-MEL-28 melanoma, in the assay on EKVX NSCLC, with NCI-H226 lung and with KM12 colon was over 100 µM each time. In addition, the TGI in the assay on NCI-H23 lung, in the assay with UACC-62 melanoma and in the assay on TK-10 renal was over 100 µM in each case.
`N#Cc1ccccc1NC(=O)c1ccccc1`: the TGI in the assay on SR leukemia, in the assay with A549 NSCLC, with SK-MEL-28 melanoma, with EKVX NSCLC, with KM12 colon and with NCI-H23 lung was over 100 µM in each case. In addition, the TGI with UACC-62 melanoma and with TK-10 renal was over 100 µM throughout.
Turning to `Cc1cn2c(/C=N/N/C(N)=N\N)c(-c3ccc(Cl)c([N+](=O)[O-])c3)nc2s1`, the GI50 is 1.29 µM in the assay on SK-OV-3 ovarian; 3.99 µM in the assay on EKVX NSCLC; 1.02 µM in the assay with KM12 colon; 4.18 µM in the assay with NCI-H23 lung; 0.883 µM in the assay with UACC-62 melanoma; 5.82 µM with TK-10 renal. In addition, the TGI in the assay with SK-OV-3 ovarian came out at 2.78 µM; in the assay on EKVX NSCLC, 15.6 µM; in the assay on KM12 colon it was 2.29 µM; with NCI-H23 lung, 20 µM; in the assay on UACC-62 melanoma, 1.67 µM; in the assay with TK-10 renal, 30.7 µM.
`CCOC(=O)c1cnn(-c2ccnc3c(C(F)(F)F)cccc23)c1N`: the GI50 in the assay on SK-OV-3 ovarian, in the assay with A549 NSCLC, with SK-MEL-28 melanoma, in the assay with EKVX NSCLC, in the assay on NCI-H226 lung and in the assay with KM12 colon was over 100 µM each time. For the same compound, the GI50 in the assay with NCI-H23 lung, in the assay with UACC-62 melanoma and in the assay on TK-10 renal was over 100 µM throughout. For the same compound, the TGI with SK-OV-3 ovarian, in the assay on A549 NSCLC, with SK-MEL-28 melanoma, with EKVX NSCLC, in the assay on NCI-H226 lung and in the assay on KM12 colon was over 100 µM throughout. The TGI in the assay on NCI-H23 lung, with UACC-62 melanoma and in the assay with TK-10 renal was over 100 µM throughout.
For the compound `COc1ccc(-c2ccc(/C=N/n3c(COc4ccc(Cl)cc4)n[nH]c3=S)o2)c([N+](=O)[O-])c1`, the GI50 in the assay on SK-OV-3 ovarian was 19.9 µM; in the assay on A549 NSCLC, 11.6 µM; in the assay on SK-MEL-28 melanoma, 17.3 µM; with EKVX NSCLC, 12.4 µM; with NCI-H226 lung, 13.5 µM; with KM12 colon, 8.12 µM. Moreover, the GI50 is 13.8 µM with NCI-H23 lung, 17.8 µM with UACC-62 melanoma and 14.6 µM in the assay on TK-10 renal. Also, the TGI in the assay on SK-OV-3 ovarian was 53.3 µM; in the assay on A549 NSCLC, 44.1 µM; in the assay with SK-MEL-28 melanoma, over 100 µM; in the assay on EKVX NSCLC, 54.1 µM; with NCI-H226 lung, 57.8 µM; in the assay with KM12 colon it was 41.3 µM. Besides, the values for the TGI in the assay on NCI-H23 lung, with UACC-62 melanoma and in the assay with TK-10 renal were 33.7 µM, 51.7 µM and 37.1 µM, respectively.
On to `N#CC1C(N)=NNC12Nc1ccccc1N2` (configuration not stated), for which the GI50 with SK-OV-3 ovarian was 30 µM; in the assay on SR leukemia, 6.4 µM; in the assay on A549 NSCLC it was 9.43 µM; in the assay with SK-MEL-28 melanoma it was 27.9 µM; in the assay with EKVX NSCLC, 14.9 µM; with KM12 colon, over 100 µM. In addition, the GI50 with UACC-62 melanoma was 3.28 µM; in the assay on TK-10 renal it was 30.7 µM. Also, the TGI in the assay with SK-OV-3 ovarian is over 100 µM; with SR leukemia, 36.8 µM; in the assay with A549 NSCLC it was over 100 µM; with SK-MEL-28 melanoma, over 100 µM; in the assay with EKVX NSCLC it was 64.6 µM; in the assay on KM12 colon, over 100 µM. The TGI in the assay on UACC-62 melanoma worked out at 33.8 µM; with TK-10 renal it was 73.3 µM.
As for `CN(C)C(=O)C1CCC(=C2C(=O)OC(C)(C)OC2=O)N1C` (configuration not stated), the TGI in the assay on SK-OV-3 ovarian, in the assay with A549 NSCLC, in the assay on SK-MEL-28 melanoma, in the assay on EKVX NSCLC, in the assay with NCI-H226 lung and in the assay on KM12 colon was over 100 µM throughout. Moreover, the TGI in the assay on NCI-H23 lung, in the assay on UACC-62 melanoma and in the assay on TK-10 renal was over 100 µM throughout.

The values are drawn from PubChem BioAssay (NCI).
